Results as given in patent publication US20250163104A1, “MACROCYCLIC IMMUNOMODULATORS” (priority 2021, published 2025).
Where a SMILES comes first, the peptide text is derived from it. Bridges are numbered along the chain shown (N, C = ends). [ ]: non-standard residue; d: D form. The star is where a group is joined. ξ: configuration not given here. Ala(morpholin-4-yl) = N[C@@H](CN1CCOCC1)C(=O)O; Phe(4-COOH) = N[C@@H](Cc1ccc(C(=O)O)cc1)C(=O)O; Bip = N[C@@H](Cc1ccc(-c2ccccc2)cc1)C(=O)O; Phe(4-CN) = N#Cc1ccc(C[C@H](N)C(=O)O)cc1; Phe(3-Me) = Cc1cccc(C[C@H](N)C(=O)O)c1; Phe(2-F) = N[C@@H](Cc1ccccc1F)C(=O)O; Val(3-OH) = CC(C)(O)[C@H](N)C(=O)O; 4Pal = N[C@@H](Cc1ccncc1)C(=O)O; Cha = N[C@@H](CC1CCCCC1)C(=O)O; Ile(3ξ) = CCC(C)[C@H](N)C(=O)O; Thr(3ξ) = CC(O)[C@H](N)C(=O)O; Carboxymethyl = O=C(O)C*; Orn = NCCC[C@H](N)C(=O)O; Pra = C#CC[C@H](N)C(=O)O; Dab = NCC[C@H](N)C(=O)O

Target: T1, human PD-1 / PD-L1-Ig binding on Jurkat cell line over-expressing human PD-1 (Jurkat-PD-1) (Homo sapiens, UniProt Q15116)
T1 construct: expressed in transfected cells; host or cells: Jurkat
T1 sequence (Q15116 25-288): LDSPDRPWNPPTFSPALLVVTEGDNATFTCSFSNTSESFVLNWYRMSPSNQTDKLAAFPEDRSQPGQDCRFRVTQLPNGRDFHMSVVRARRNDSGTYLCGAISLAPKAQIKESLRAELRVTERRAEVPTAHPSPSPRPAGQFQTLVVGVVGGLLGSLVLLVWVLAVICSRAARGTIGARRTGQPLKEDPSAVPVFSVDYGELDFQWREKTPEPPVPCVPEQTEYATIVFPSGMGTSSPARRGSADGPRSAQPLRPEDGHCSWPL
Experiment: Jurkat-PD-1 Cell Binding High-Content Screening Assay (CBA)
Format: cell-based
Conditions: Jurkat-PD-1 cells, PE-labeled PD-L1-Ig 20 nM final; read-out: Jurkat HPD1_PDL1 IC50
Procedure, shortened: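 Cell-bound PE-labeled PD-L1-Ig (20 nM final, 1 h) measured by high-content imaging after fixation and Hoechst 33342 counterstain. Compound was applied first for 2 h at 37° C. to Jurkat cells over-expressing human PD-1 in DMEM with 10% FCS.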

IC50 [nM]	SMILES
27	CC(C)C[C@H]1NC(=O)[C@H](CCCN)NC(=O)[C@H](C(C)C)NC(=O)[C@H](Cc2ccc(-c3ccccc3)cc2)NC(=O)[C@H](C(C)C)NC(=O)[C@H](Cc2c[nH]c3ccccc23)NC(=O)[C@H](CC(=O)O)NC(=O)[C@H](Cc2ccc(C(=O)O)cc2)NC(=O)[C@H](Cc2ccncc2)NC(=O)CSC[C@@H](C(=O)N[C@@H](C)C(N)=O)NC(=O)[C@H]([C@@H](C)O)NC(=O)[C@H](C(C)C)NC(=O)[C@H](CC2CCCCC2)NC(=O)[C@H](CCN)NC1=O [Compound 1689]
12.1	CC(C)C[C@H]1NC(=O)[C@H](CCCN)NC(=O)[C@H](C(C)C)NC(=O)[C@H](Cc2ccc(-c3ccccc3)cc2)NC(=O)[C@H](C(C)C)NC(=O)[C@H](Cc2cccc(C(F)(F)F)c2)NC(=O)[C@H](CC(=O)O)NC(=O)[C@H](Cc2ccc(OCC(=O)O)cc2)NC(=O)[C@H](Cc2ccncc2)NC(=O)CSC[C@@H](C(=O)N[C@@H](C)C(N)=O)NC(=O)[C@H]([C@@H](C)O)NC(=O)[C@H](C(C)C)NC(=O)[C@H](CC2CCCCC2)NC(=O)[C@H](CCN)NC1=O [Compound 1577]
13.6	CC(C)C[C@H]1NC(=O)[C@H](CCCN)NC(=O)[C@H](C(C)C)NC(=O)[C@H](Cc2ccc(-c3ccccc3)cc2)NC(=O)[C@H](C(C)C)NC(=O)[C@H](Cc2c[nH]c3ccccc23)NC(=O)[C@H](CC(=O)O)NC(=O)[C@H](Cc2ccc(C(=O)O)cc2)NC(=O)[C@H](Cc2ccc(OCC(=O)O)cc2)NC(=O)CSC[C@@H](C(=O)N[C@@H](C)C(N)=O)NC(=O)[C@H]([C@@H](C)O)NC(=O)[C@H](C(C)C)NC(=O)[C@H](Cc2cccc(F)c2)NC(=O)[C@H](CCN)NC1=O [Compound 1673]
8.9	Cc1cccc(C[C@@H]2NC(=O)[C@H](CC(=O)O)NC(=O)[C@H](Cc3ccc(C(=O)O)cc3)NC(=O)[C@H](CN)NC(=O)CSC[C@@H](C(=O)N[C@@H](C)C(N)=O)NC(=O)[C@H]([C@@H](C)O)NC(=O)[C@H](C(C)C)NC(=O)[C@H](CC3CCCCC3)NC(=O)[C@H](CCN)NC(=O)[C@@H](CC(C)C)NC(=O)[C@H](CCCN)NC(=O)[C@H](C(C)C)NC(=O)[C@H](Cc3ccc(-c4ccccc4)cc3)NC(=O)[C@H](C(C)C)NC2=O)c1 [Compound 1206]
104	CC(C)C[C@H]1NC(=O)[C@H](CCCN)NC(=O)[C@H](C(C)C)NC(=O)[C@H](Cc2ccc(-c3ccccc3)cc2)NC(=O)[C@H](C(C)C)NC(=O)[C@H](Cc2c[nH]c3ccccc23)NC(=O)[C@H](CC(=O)O)NC(=O)[C@H](Cc2ccc(OCC(=O)O)cc2)NC(=O)[C@H](Cc2ccc(OCC(=O)O)cc2)NC(=O)CSC[C@@H](C(=O)N[C@@H](C)C(N)=O)NC(=O)[C@H]([C@@H](C)O)NC(=O)[C@H](C(C)C)NC(=O)[C@H](Cc2ccc(O)cc2)NC(=O)[C@H](CCN)NC1=O [Compound 1683] ({CH2CO}-Y(Carboxymethyl)Y(Carboxymethyl)DWV[Bip]V[Orn][dL][Dab]YVTCA-NH2; thioether N-14)
21.2	CC(C)C[C@H]1NC(=O)[C@H](CCCN)NC(=O)[C@H](CCCNC(N)=O)NC(=O)[C@H](Cc2ccc(-c3ccccc3)cc2)NC(=O)[C@H](C(C)C)NC(=O)[C@H](Cc2c[nH]c3ccccc23)NC(=O)[C@H](CC(=O)O)NC(=O)[C@H](Cc2ccsc2)NC(=O)[C@H](CN)NC(=O)CSC[C@@H](C(=O)N[C@@H](C)C(N)=O)NC(=O)[C@H]([C@@H](C)O)NC(=O)[C@H](C(C)C)NC(=O)[C@H](CC2CCCCC2)NC(=O)[C@H](CCN)NC1=O [Compound 2100]

More lines, now with the values behind:

SMILES	IC50 [nM]
CC(C)C[C@H]1NC(=O)[C@H](CCCN)NC(=O)[C@H](CCC(=O)O)NC(=O)[C@H](Cc2ccc(-c3ccccc3)cc2)NC(=O)[C@H](C(C)C)NC(=O)[C@H](Cc2ccccc2F)NC(=O)[C@H](CC(=O)O)NC(=O)[C@H](Cc2ccc(C#N)cc2)NC(=O)[C@H](Cc2ccccc2)NC(=O)CSC[C@@H](C(=O)N[C@@H](C)C(N)=O)NC(=O)[C@H]([C@@H](C)O)NC(=O)[C@H](C(C)C)NC(=O)[C@H](CC2CCCCC2)NC(=O)[C@H](CCN)NC1=O [Compound 2213] ({CH2CO}-F[Phe(4-CN)]D[Phe(2-F)]V[Bip]E[Orn][dL][Dab][Cha]VTCA-NH2; thioether N-14)	59.2
Cc1cccc(C[C@@H]2NC(=O)[C@H](CC(=O)O)NC(=O)[C@H](Cc3ccc(C(=O)O)cc3)NC(=O)[C@H](Cc3ccncc3)NC(=O)CSC[C@@H](C(=O)N[C@H](CC(N)=O)C(N)=O)NC(=O)[C@H](CCC(=O)O)NC(=O)[C@H](C(C)C)NC(=O)[C@H](CC3CCCCC3)NC(=O)[C@H](CCN)NC(=O)[C@@H](CC(C)C)NC(=O)[C@H](CCCN)NC(=O)[C@H](Cc3ccc(OCC(=O)O)cc3)NC(=O)[C@H](Cc3ccc(-c4ccccc4)cc3)NC(=O)[C@H](Cc3ccc(OCC(=O)O)cc3)NC2=O)c1 [Compound 2314] ({CH2CO}-[4Pal][Phe(4-COOH)]D[Phe(3-Me)]Y(Carboxymethyl)[Bip]Y(Carboxymethyl)[Orn][dL][Dab][Cha]VEC[dN]-NH2; thioether N-14)	45.8
C#CC[C@H](NC(=O)[C@H](CCN)NC(=O)[C@@H]1CSCC(=O)N[C@@H](CN2CCOCC2)C(=O)N[C@@H](Cc2ccc(C(=O)O)cc2)C(=O)N[C@@H](CC(=O)O)C(=O)N[C@@H](Cc2cccc(C)c2)C(=O)N[C@@H](Cc2ccc(C(=O)O)cc2)C(=O)N[C@@H](Cc2ccc(-c3ccccc3)cc2)C(=O)N[C@@H](Cc2ccc(C(=O)O)cc2)C(=O)N[C@@H](CCCN)C(=O)N[C@H](CC(C)C)C(=O)N[C@@H](CCN)C(=O)N[C@@H](CC2CCCCC2)C(=O)N[C@@H](C(C)(C)O)C(=O)N[C@@H](CO)C(=O)N1)C(N)=O [Compound 1847] ({CH2CO}-[Ala(morpholin-4-yl)][Phe(4-COOH)]D[Phe(3-Me)][Phe(4-COOH)][Bip][Phe(4-COOH)][Orn][dL][Dab][Cha][Val(3-OH)]SC[Dab][Pra]-NH2; thioether N-14)	2.1
CC(C)C[C@@H]1NC(=O)[C@H](Cc2c[nH]c3ccccc23)NC(=O)[C@H](CC(=O)O)NC(=O)[C@H](Cc2ccc(O)cc2)NC(=O)[C@H](Cc2ccccc2)NC(=O)CSC[C@@H](C(=O)NCC(N)=O)NC(=O)[C@H]([C@@H](C)O)NC(=O)[C@H](C(C)C)NC(=O)[C@H](CC(C)C)NC(=O)[C@H](CCN)NC(=O)[C@@H](CC(C)C)NC(=O)[C@H](CCN)NC(=O)[C@H](C(C)C)NC(=O)[C@H](Cc2ccc(-c3ccccc3)cc2)NC1=O [Compound 1060] ({CH2CO}-FYDWL[Bip]V[Dab][dL][Dab]LVTCG-NH2; thioether N-14)	16.4

Same assay, conditions: read-out: Jurkat HPD1_PDL1 IC50; Jurkat-PD-1 cells, PE-labeled PD-L1-Ig 20 nM final

SMILES	IC50 [nM]
CCC(C)[C@@H]1NC(=O)[C@H](Cc2ccc(-c3ccccc3)cc2)NC(=O)[C@H](CO)NC(=O)[C@H](Cc2c[nH]c3ccccc23)NC(=O)[C@H](CC(=O)O)NC(=O)[C@H](Cc2ccc(OCC(=O)O)cc2)NC(=O)[C@H](C(C)O)NC(=O)CSC[C@@H](C(=O)N[C@@H](CC(N)=O)C(=O)O)NC(=O)[C@H](CO)NC(=O)[C@H](C(C)C)NC(=O)[C@H](CC(C)C)NC(=O)[C@H](CCN)NC(=O)[C@@H](CC(C)C)NC(=O)[C@H](CCCN)NC1=O (stereo partly drawn) [Compound 2581] ({CH2CO}-[Thr(3ξ)]Y(Carboxymethyl)DWS[Bip][Ile(3ξ)][Orn][dL][Dab]LVSCN-OH; thioether N-14)	472
